These results are taken from patent publication US12059565B1, “Methods and systems for modulating unconsciousness or anesthesia in a subject” (priority 2019, dated 2024).

For data set [1] the following is noted: infused for several hours to days at 1.5 mcg/kg/hr, critically ill patients; cited from earlier work.
Data set [2] has as its system EEG SWA / behavioral responsiveness. To be noted: during TCI dexmedetomidine sedation; expected, based on Sleigh and colleagues.
Description: Participants will undergo three arousals during this phase of the experiment: one during in-phase stimulation, one during anti-phase stimulation, and one during sham stimulation (FIG. 13). The order of CLASS conditions under which a participant will be aroused is the same as in Phase 2, which is balanced across participants. Each arousal will be preceded by at least three consecutive minutes of acoustic stimulation, which will continue during the arousal procedure. The arousal procedure consists of the same ramping thermal stimulation used during pre-sedation QST. The cardinal difference between pre-sedation QST and arousal QST is that one of the investigators will be tasked with pressing the button to end the thermal ramp instead of the sedated participant. The investigator will end the arousal protocol as soon as they observe purposeful behavior in response to the thermal stimulation. The investigator will also be able to terminate the thermal stimulation at their clinical discretion. Vital signs, EEG, and video recording will allow review of the time of arousal during post-hoc analysis. […] Assessors of arousal will be blinded to the acoustic stimulation conditions. Once a participant has been definitively aroused, thermal stimulation will cease. […]
Data set [3] has as its system alpha2 receptors. To be noted: cited from earlier work.
For data set [4] the following is noted: healthy volunteers; conservative estimate; cited from earlier work.
The mark [5] stands for this setting: target effect site concentrations of 2.0-4.0 ng/ml, most participants.

In the case of `Cc1cccc([C@H](C)c2cnc[nH]2)c1C` [dexmedetomidine], the steady-state concentration in data set [1] was 2.5 to 3.0 ng/mL. In addition, in data set [2], the “time for EEG SWA to return to pre-arousal levels” value is not above 10 min and the “time to return to a state of unresponsiveness after thermal arousal” value is not above 60 s. Also, in data set [3] (dexmedetomidine infusions), the “most common adverse events” value is “bradycardia, hypotension and hypertension”. In data set [3] (plasma concentration <1 ng/ml, agonism at alpha2 receptors in the central nervous system), the “haemodynamic effect at low plasma concentrations” value was “decrease in peripheral vascular resistance and heart rate”. Also, the “haemodynamic effect at higher plasma concentrations” value in data set [3] (plasma concentration >4 ng/ml, agonism at alpha2 receptors on vascular smooth muscle) is “hypertension and worsening reflex bradycardia”. In data set [3] (setting [5]), the HR is on record as more than 75 % from baseline, the MAP result is reported as “near-baseline” and the level of sedation entry was “moderately sedated”. Further, in data set [4], the “equilibration constant (t1/2 ke0)” value is 3 min.
